Source: ChEMBL document CHEMBL1127980, “A convenient synthesis of 2-amino-2-oxazolines and their pharmacological evaluation at cloned human adrenergic receptors” (Bioorg Med Chem Lett, 1994)

How the values were obtained:
[1] = molecular target: T1, Alpha-2A adrenergic receptor (Homo sapiens, UniProt P08913); test: Agonistic activity towards human Alpha-2A adrenergic receptor was measured as ability to inhibit forskolin-stimulated synthesis of cyclic adenosine monophosphate; format: functional
T1 sequence (P08913 whole entry): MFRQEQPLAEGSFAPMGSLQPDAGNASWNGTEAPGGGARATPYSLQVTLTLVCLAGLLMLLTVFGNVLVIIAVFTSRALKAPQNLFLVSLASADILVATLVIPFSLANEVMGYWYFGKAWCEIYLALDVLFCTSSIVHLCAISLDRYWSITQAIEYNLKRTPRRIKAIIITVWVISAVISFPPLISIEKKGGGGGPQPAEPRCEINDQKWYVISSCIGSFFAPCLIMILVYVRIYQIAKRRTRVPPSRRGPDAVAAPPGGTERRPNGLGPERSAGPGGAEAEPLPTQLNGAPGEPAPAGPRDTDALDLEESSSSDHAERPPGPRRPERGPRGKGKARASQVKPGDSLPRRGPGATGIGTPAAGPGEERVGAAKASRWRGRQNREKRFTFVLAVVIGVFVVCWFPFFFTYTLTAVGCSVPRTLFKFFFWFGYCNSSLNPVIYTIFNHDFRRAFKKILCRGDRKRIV

[2] = molecular target: T2, Alpha-2B adrenergic receptor (Homo sapiens, UniProt P18089); test: Binding affinity towards human Alpha-2B adrenergic receptor by the displacement of [3H]rauwolscine
T2 sequence (P18089 whole entry): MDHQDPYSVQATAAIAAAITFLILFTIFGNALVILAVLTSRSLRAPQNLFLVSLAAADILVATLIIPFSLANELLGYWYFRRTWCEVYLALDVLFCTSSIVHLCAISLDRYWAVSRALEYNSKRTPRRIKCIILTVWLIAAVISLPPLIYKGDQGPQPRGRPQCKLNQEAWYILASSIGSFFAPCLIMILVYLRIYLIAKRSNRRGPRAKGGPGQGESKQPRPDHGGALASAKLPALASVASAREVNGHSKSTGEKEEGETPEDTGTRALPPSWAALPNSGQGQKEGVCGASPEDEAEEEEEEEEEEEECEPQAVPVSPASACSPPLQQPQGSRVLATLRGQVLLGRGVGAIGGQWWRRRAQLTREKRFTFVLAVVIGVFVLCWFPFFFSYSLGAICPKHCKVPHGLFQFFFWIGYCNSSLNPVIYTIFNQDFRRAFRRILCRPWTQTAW

[3] = molecular target: T3, Alpha-1D adrenergic receptor (Homo sapiens, UniProt P25100); test: Binding affinity towards human Alpha-1A adrenergic receptor by the displacement of [3H]prazosin
T3 sequence (P25100 whole entry): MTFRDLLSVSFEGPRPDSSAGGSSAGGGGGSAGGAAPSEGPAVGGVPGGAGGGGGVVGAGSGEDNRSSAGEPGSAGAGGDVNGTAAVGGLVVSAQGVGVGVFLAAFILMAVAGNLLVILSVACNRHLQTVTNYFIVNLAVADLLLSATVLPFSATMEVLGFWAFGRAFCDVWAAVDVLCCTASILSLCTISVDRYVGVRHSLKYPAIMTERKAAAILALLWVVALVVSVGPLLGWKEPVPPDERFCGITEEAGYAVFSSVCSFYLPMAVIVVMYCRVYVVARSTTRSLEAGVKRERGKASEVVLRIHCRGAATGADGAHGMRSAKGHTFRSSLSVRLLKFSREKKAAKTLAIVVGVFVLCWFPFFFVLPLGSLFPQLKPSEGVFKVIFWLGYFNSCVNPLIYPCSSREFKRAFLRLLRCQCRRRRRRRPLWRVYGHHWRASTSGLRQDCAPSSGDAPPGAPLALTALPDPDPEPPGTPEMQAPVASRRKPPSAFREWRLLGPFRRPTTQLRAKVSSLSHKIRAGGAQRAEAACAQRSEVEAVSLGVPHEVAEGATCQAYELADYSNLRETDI

[4] = molecular target: T4, Alpha-1A adrenergic receptor (Homo sapiens, UniProt P35348); test: Binding affinity towards human Alpha-1C adrenergic receptor by the displacement of [3H]prazosin
T4 sequence (P35348 whole entry): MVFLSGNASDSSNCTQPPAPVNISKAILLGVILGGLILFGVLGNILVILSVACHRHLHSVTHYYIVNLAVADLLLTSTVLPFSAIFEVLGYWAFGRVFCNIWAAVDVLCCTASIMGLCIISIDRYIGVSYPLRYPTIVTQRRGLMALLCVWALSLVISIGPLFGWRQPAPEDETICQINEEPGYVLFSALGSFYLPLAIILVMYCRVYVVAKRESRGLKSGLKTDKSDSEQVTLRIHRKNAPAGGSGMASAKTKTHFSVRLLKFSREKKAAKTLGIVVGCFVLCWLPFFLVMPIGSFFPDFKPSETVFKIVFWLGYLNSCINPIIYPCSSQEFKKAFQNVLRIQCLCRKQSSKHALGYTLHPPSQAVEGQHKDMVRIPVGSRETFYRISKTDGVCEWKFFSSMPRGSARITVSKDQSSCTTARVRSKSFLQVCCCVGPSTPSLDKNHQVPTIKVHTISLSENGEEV

[5] = molecular target: T5, Alpha-2C adrenergic receptor (Homo sapiens, UniProt P18825); test: Agonistic activity towards human Alpha-2C adrenergic receptor was measured as ability to inhibit forskolin-stimulated synthesis of cyclic adenosine monophosphate; format: functional
T5 sequence (P18825 whole entry): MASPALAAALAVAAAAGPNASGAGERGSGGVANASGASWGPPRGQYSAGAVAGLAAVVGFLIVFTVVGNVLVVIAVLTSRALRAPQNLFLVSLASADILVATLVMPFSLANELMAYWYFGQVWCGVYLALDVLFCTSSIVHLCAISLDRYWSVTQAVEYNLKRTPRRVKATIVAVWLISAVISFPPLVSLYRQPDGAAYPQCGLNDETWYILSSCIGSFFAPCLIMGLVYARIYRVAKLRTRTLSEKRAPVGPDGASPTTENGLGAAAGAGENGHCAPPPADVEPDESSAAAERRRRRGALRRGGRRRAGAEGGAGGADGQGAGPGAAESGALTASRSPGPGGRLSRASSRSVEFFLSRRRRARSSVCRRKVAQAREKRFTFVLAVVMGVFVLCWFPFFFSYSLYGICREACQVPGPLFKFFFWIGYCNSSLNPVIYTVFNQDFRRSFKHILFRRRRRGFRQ

[6] = molecular target: T2, Alpha-2B adrenergic receptor; test: Agonistic activity towards human Alpha-2B adrenergic receptor was measured as ability to inhibit forskolin-stimulated synthesis of cyclic adenosine monophosphate; format: functional
[7] = molecular target: T5, Alpha-2C adrenergic receptor; test: Binding affinity towards human Alpha-2C adrenergic receptor by the displacement of [3H]rauwolscine
[8] = molecular target: T1, Alpha-2A adrenergic receptor; test: Binding affinity towards human Alpha-2A adrenergic receptor by the displacement of [3H]rauwolscine

SMILES | EC50 [1] [nM] | Ki [2] [nM] | Ki [3] [nM] | Ki [4] [nM] | EC50 [5] [nM] | EC50 [6] [nM] | Ki [7] [nM] | Ki [8] [nM]
C1CCCC(NC2=NCCO2)CC1 | 38 | 9.77 | 3800 | 2000 | 77.6 | 214 | 33.1 | 5.37
c1ccc2c(c1)CCCC2NC1=NCCCO1 (stereo not given) | 229 | 25.1 | 2190 | 1950 | 24.5 | 34.7 | 85.1 | 25.7
CCC[C@H]1CCCCC1NC1=NCCO1 (stereo not given in full) | 1.62 | 5.89 | 562 | 141 | 4.07 | 9.33 | 24.5 | 2.95
c1ccc2c(c1)CCCC2NC1=NCCO1 (stereo not given) | 1.17 | 2.14 | 204 | 126 | 2.19 | 3.55 | 12 | 2.34
C1COC(N2CCOCC2)=N1 | – | 11700 | 120000 | 107000 | – | – | 16600 | 16600
C1COC(NC(C2CC2)C2CC2)=N1 [RILMENIDINE] | 275 | 70.8 | 8910 | 6030 | 191 | 724 | 288 | 182
